Experimental data reported in patent US4401660A, “Ester derivatives of 5-O-mycaminosyl tylonolide and method of using same” (Eli Lilly and Company, priority 1981, dated 1983).
Like-named read-outs stand apart in the source and are kept apart here.

Columns and labels:
[1] = system: Streptococcus pyogenes C203; assay: ED50 in mice with experimental infections (Table IV); format: in vivo; conditions: Streptococcus pyogenes, doses given 1 and 4 hours postinfection
Procedure, shortened: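 Read-out is ED50, the mg/kg dose protecting half of infected mice; values refer to each of two doses, given 1 and 4 hours after infection.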

[2] = system: Pasteurella haemolytica 23C; assay: MIC, broth-dilution microtiter test (Table III); format: cell-based; design: unit not given here
Method: (§1) The MIC's in Table II were determined by standard agar-dilution assays. The MIC's in Table III were obtained using a conventional broth-dilution microtiter test.

[3] = system: Pasteurella multocida 17E; assay: MIC, broth-dilution microtiter test (Table III); format: cell-based; design: unit not given here; conditions: bovine isolate
Method: as §1

[4] = system: Pasteurella multocida 60A; assay: MIC, broth-dilution microtiter test (Table III); format: cell-based; design: unit not given here; conditions: avian isolate
Method: as §1

[5] = system: Pasteurella multocida 22A; assay: MIC, broth-dilution microtiter test (Table III); format: cell-based; design: unit not given here
Method: as §1

[6] = system: Streptococcus sp. 80; assay: MIC, broth-dilution microtiter test (Table III); format: cell-based; design: unit not given here
Method: as §1

[7] = system: Pasteurella haemolytica 22C; assay: MIC, broth-dilution microtiter test (Table III); format: cell-based; design: unit not given here
Method: as §1

[8] = system: Mycoplasma hyorhinis; assay: MIC, broth-dilution microtiter test (Table III); format: cell-based; design: unit not given here
Method: as §1

[9] = system: Pasteurella multocida 68C; assay: MIC, broth-dilution microtiter test (Table III); format: cell-based; design: unit not given here
Method: as §1

[10] = system: Staphylococcus aureus; assay: MIC, broth-dilution microtiter test (Table III); format: cell-based; design: unit not given here
Method: as §1

[11] = system: Pasteurella haemolytica 41D; assay: MIC, broth-dilution microtiter test (Table III); format: cell-based; design: unit not given here
Method: as §1

[12] = system: Mycoplasma synoviae; assay: MIC, broth-dilution microtiter test (Table III); format: cell-based; design: unit not given here
Method: as §1

[13] = system: Pasteurella multocida 40G; assay: MIC, broth-dilution microtiter test (Table III); format: cell-based; design: unit not given here
Method: as §1

[14] = system: Mycoplasma gallisepticum; assay: MIC, broth-dilution microtiter test (Table III); format: cell-based; design: unit not given here
Method: as §1

[15] = system: Pasteurella multocida; assay: Treatment of Pasteurella infections in chicks (Table V); format: in vivo, one-day-old chicks; conditions: Pasteurella multocida, sc, 4 h; 30 mg/kg by subcutaneous injection one and four hours post challenge; read-out: Deaths in Treated Chicks/Number Treated (converted)
Procedure, shortened: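 Dosing was 30 mg/kg by subcutaneous injection, one and four hours after challenge. Day-old chicks received 0.1 ml of a 10^-3 dilution of a 20-hour tryptose broth culture of avian P. multocida subcutaneously. Nonmedicated infected chicks served as controls, ten per group.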

[16] = system: Staphylococcus epidermidis EPI2; assay: MIC, standard agar-dilution assay (Table II); format: cell-based; design: unit not given here
Method: as §1

[17] = system: Staphylococcus aureus X400; assay: MIC, standard agar-dilution assay (Table II); format: cell-based; design: unit not given here; conditions: Staphylococcus aureus X400, methicillin-resistant strain
Method: as §1

[18] = system: Staphylococcus epidermidis EPI1; assay: MIC, standard agar-dilution assay (Table II); format: cell-based; design: unit not given here
Method: as §1

[19] = system: Streptococcus Group D X66; assay: MIC, standard agar-dilution assay (Table II); format: cell-based; design: unit not given here
Method: as §1

[20] = system: Staphylococcus aureus X1.1; assay: MIC, standard agar-dilution assay (Table II); format: cell-based; design: unit not given here
Method: as §1

[21] = system: Streptococcus Group D 9960; assay: MIC, standard agar-dilution assay (Table II); format: cell-based; design: unit not given here
Method: as §1

[22] = system: Staphylococcus aureus V41; assay: MIC, standard agar-dilution assay (Table II); format: cell-based; design: unit not given here; conditions: Staphylococcus aureus V41, penicillin-resistant strain
Method: as §1

[23] = system: Streptococcus pyogenes C203; assay: MIC, standard agar-dilution assay (Table II); format: cell-based; design: unit not given here
Method: as §1

[24] = system: Streptococcus pneumoniae Park I; assay: MIC, standard agar-dilution assay (Table II); format: cell-based; design: unit not given here
Method: as §1

[25] = system: Staphylococcus aureus S13E; assay: MIC, standard agar-dilution assay (Table II); format: cell-based; design: unit not given here
Method: as §1

[26] = system: Haemophilus influenzae R252; assay: MIC, standard agar-dilution assay (Table II); format: cell-based; design: unit not given here; conditions: Haemophilus influenzae R252, ampicillin-resistant strain
Method: as §1

[27] = system: Haemophilus influenzae Holt; assay: MIC, standard agar-dilution assay (Table II); format: cell-based; design: unit not given here; conditions: ampicillin-sensitive strain
Method: as §1

[28] = C203, oral, read-out: ED50, Oral
[29] = C203, sc, subcutaneous, read-out: ED50, Subcutaneous

Compound	ED50 [1, 28]	minimal inhibitory concentration (MIC) [2]	minimal inhibitory concentration (MIC) [3]	minimal inhibitory concentration (MIC) [4]	minimal inhibitory concentration (MIC) [5]	minimal inhibitory concentration (MIC) [6]	minimal inhibitory concentration (MIC) [7]	minimal inhibitory concentration (MIC) [8]	minimal inhibitory concentration (MIC) [9]	minimal inhibitory concentration (MIC) [10]	minimal inhibitory concentration (MIC) [11]	minimal inhibitory concentration (MIC) [12]	minimal inhibitory concentration (MIC) [14]	mortality at 30 mg/kg [15]	minimal inhibitory concentration (MIC) [16]	minimal inhibitory concentration (MIC) [17]	minimal inhibitory concentration (MIC) [18]	minimal inhibitory concentration (MIC) [19]	minimal inhibitory concentration (MIC) [20]	minimal inhibitory concentration (MIC) [21]	further results
CCC1OC(=O)CC(O)C(C)C(OC2OC(C)C(OC(C)=O)C(N(C)C)C2OC(C)=O)C(CC=O)CC(C)C(=O)C=CC(C)=CC1COC(=O)CSc1ccc(Cl)c(Cl)c1 (stereo not shown) [Compound 37, 2',4'-Di-O-acetyl-23-O-[(3,4-dichlorophenylthio)acetyl]-OMT]	> 150 mg/kg	6.25	1.56	3.12	6.25	< 0.05	6.25	6.25	0.78	0.39	12.5	0.78	< 0.05	100%	4	4	2	2	2	2	minimal inhibitory concentration (MIC) [13]: 3.12; minimal inhibitory concentration (MIC) [22]: 4; minimal inhibitory concentration (MIC) [23]: 0.5; minimal inhibitory concentration (MIC) [24]: 0.5; minimal inhibitory concentration (MIC) [25]: 2
CCC1OC(=O)CC(O)C(C)C(OC2OC(C)C(O)C(N(C)C)C2O)C(CC=O)CC(C)C(=O)C=CC(C)=CC1COC(=O)CSc1ccc(Cl)c(Cl)c1 (stereo not shown) [Compound 38, 23-O-[(3,4-Dichlorophenylthio)acetyl]-OMT]	> 150 mg/kg	6.25	1.56	1.56	3.12	< 0.05	3.12	3.12	1.56	< 0.05	6.25	0.097	< 0.05	10%	0.25	0.25	0.25	0.125	0.125	0.125	minimal inhibitory concentration (MIC) [13]: 1.56; minimal inhibitory concentration (MIC) [22]: 0.25; minimal inhibitory concentration (MIC) [23]: 0.06; minimal inhibitory concentration (MIC) [24]: 0.03; minimal inhibitory concentration (MIC) [25]: 0.125
CCC1OC(=O)CC(O)C(C)C(OC2OC(C)C(O)C(N(C)C)C2O)C(CC=O)CC(C)C(=O)C=CC(C)=CC1COC(=O)[C@H](O)c1ccccc1 (stereo partly shown) [Compound 42, 23-O-Mandeloyl-OMT]	> 150 mg/kg	6.25	6.25	3.12	6.25	0.39	6.25	12.5	3.12	0.78	3.12	0.195	0.39	0%	0.5	0.5	0.25	0.25	0.25	0.25	ED50 [1, 29]: 11 mg/kg; minimal inhibitory concentration (MIC) [13]: 1.56; minimal inhibitory concentration (MIC) [22]: 0.5; minimal inhibitory concentration (MIC) [23]: 0.125; minimal inhibitory concentration (MIC) [24]: 0.06; minimal inhibitory concentration (MIC) [25]: 0.25
CCC1OC(=O)CC(O)C(C)C(OC2OC(C)C(O)C(N(C)C)C2O)C(CC=O)CC(C)C(=O)C=CC(C)=CC1COC(=O)c1ccccc1 (stereo not shown) [Compound 26, 23-O-Benzoyl-OMT]	136 mg/kg	3.12	1.56	0.78	1.56	0.195	6.25	0.39	1.56	0.39	6.25	0.39	< 0.05	100%	0.5	0.5	0.25	0.25	0.25	0.25	ED50 [1, 29]: 10.6 mg/kg; minimal inhibitory concentration (MIC) [26]: 2; minimal inhibitory concentration (MIC) [27]: 2; minimal inhibitory concentration (MIC) [22]: 0.25; minimal inhibitory concentration (MIC) [23]: 0.125; minimal inhibitory concentration (MIC) [24]: 0.06; minimal inhibitory concentration (MIC) [25]: 0.25
